Test results: patent publication US7560279B2, “Method of proliferating human hepatocytes and method for obtaining human hepatocytes” (Hiroshima Industrial Promotion Organization, priority 2002, dated 2009)

Key:
[1] = test system: normalized mouse hepatocytes; assay: Growth inhibition of normalized mouse hepatocytes in uPA-Tg/SCID mice; format: in vivo; conditions: 30 or 60 mg/kg intraperitoneally
Procedure: Retrorsine was inoculated intraperitoneally in the amount of 30 or 60 mg/kg into a uPA-Tg(+/−)/SCID mouse and a uPA-Tg(+/+)/SCID mouse. As the result, number of colonies of normalized hepatocytes caused by deletion of introduced uPA gene (uPA-Tg(−/−)/SCID) was reduced in the uPA-Tg(+/−)/SCID mouse (FIG. 12).

human hepatocytes = assay: Human albumin in blood of chimeric mice (ELISA); format: in vivo; conditions: 60 mg/kg intraperitoneally before transplantation; compared with chimeric uPA-Tg(+/+)/SCID mouse
Procedure: From 1 week after transplantation of human hepatocytes, 10 μl blood samples were taken from the tail of a mouse once or twice per a week, and concentration of human albumin was measured using Quantitative ELISA immunoassay (Bethyl Laboratories Inc.).
Then, the uPA-Tg(+/−)/SCID and the uPA-Tg(+/+)/SCID mice, which were inoculated with 60 mg/kg of retrorsine intraperitoneally, were transplanted with human hepatocytes similarly as in Example 1 to prepare chimeric mice.
As to one chimeric mouse prepared in Example 1, at 100 days after transplantation of human hepatocytes, an anti-mouse Fas antibody which leads mouse hepatocytes to apoptosis by reaction with a Fas antigen thereof was inoculated (0.2 μg/g body weight) into the abdominal cavity of said chimeric mouse twice at the interval of 1 week.

CYP2C9 = test system: T1, CYP2C9; assay: Diclofenac 4-hydroxylation activity in mouse liver microsomes; format: in vivo; conditions: liver microsomes of uPA(-/-)/SCID mouse
T1 construct: to check activity of CYP2C9 in the microsomal fraction sampled from a mouse; from tissue; host or cells: liver microsomal fraction of human-hepatocyte-transplanted chimeric mice (uPA/SCID); donor (human) microsome as comparison
T1 sequence (P11712 whole entry): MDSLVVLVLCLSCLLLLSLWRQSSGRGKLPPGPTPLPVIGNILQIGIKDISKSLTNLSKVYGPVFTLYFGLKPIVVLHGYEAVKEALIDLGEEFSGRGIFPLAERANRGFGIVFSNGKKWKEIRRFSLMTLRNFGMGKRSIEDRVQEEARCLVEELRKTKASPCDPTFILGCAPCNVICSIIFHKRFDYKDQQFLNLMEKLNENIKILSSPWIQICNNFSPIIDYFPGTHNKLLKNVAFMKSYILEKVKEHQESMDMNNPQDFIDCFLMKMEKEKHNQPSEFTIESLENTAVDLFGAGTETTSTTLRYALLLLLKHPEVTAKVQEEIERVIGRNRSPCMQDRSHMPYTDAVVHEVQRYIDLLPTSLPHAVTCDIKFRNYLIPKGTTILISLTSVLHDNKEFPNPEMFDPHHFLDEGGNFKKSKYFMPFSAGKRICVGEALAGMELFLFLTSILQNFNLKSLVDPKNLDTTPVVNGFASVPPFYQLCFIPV
Procedure: Further, to check activity of CYP2C9 in the microsomal fraction sampled from a mouse, diclofenac 4-hydroxylation activity was measured by adding diclofenac to the microsome. In consequence, diclofenac 4-hydroxylation activity was little detected in the uPA(−/−)/SCID mouse, and induction of activity by administration of a complement inhibitor was not observed also. […] In a chimeric mouse with 89% of replacement ratio, diclofenac 4-hydroxylation activity was confirmed higher than that of donor (human) microsome (FIG. 9).

human complement (hC3a) = assay: Human complement (hC3a) in blood of chimeric mice by ELISA; format: in vivo, mouse; conditions: administered vs non-administered chimeric mice
Procedure: Further, concentration of the human complement (hC3a) in blood of chimeric mice administered or non-administered with the complement inhibitor (Futhan®) was measured by ELISA method. In consequence, it was confirmed that hC3a concentration was lower in chimeric mice administered with the complement inhibitor compared with non-administered mice (FIG. 4).

[2] = test system: human complement produced by human hepatocytes; assay: Complement inhibitor given to human-hepatocyte chimeric mice: survival; format: in vivo, mouse; conditions: 200 μl of 2 mg/ml, every 2 days to twice a day; human albumin in blood exceeded 3 mg/ml
Procedure: Also, human hepatocytes in the mouse liver tissue were stained immunologically using an anti-human complement C3 antibody, and presence of a complement C3 in human hepatocytes was confirmed. Therefore, 200 μl of a complement inhibitor (Futhan®) with concentration of 2 mg/ml was administered into the mouse with increased human albumin concentration. Administration frequency was started from once per 2 days. Change in body weight was checked every day, and administration frequency or dose was increased when decrease in body weight was observed (FIG. 3). As the results, the mice with human albumin concentration in blood over 2 mg/ml received the complement inhibitor (Futhan®) every 2 days, and those over 4 mg/ml received every day, and further, those over 6 mg/ml received twice a day (FIG. 3).

Compound	number of colonies of normalized hepatocytes caused by deletion of introduced uPA gene [1]	human albumin concentration in blood of chimeric uPA-Tg(+/-)/SCID mouse (human hepatocytes)	induction of diclofenac 4-hydroxylation activity (CYP2C9)	hC3a concentration in blood (human complement (hC3a))	survival of chimeric mouse [2]
retrorsine	reduced	increased to the same level	–	–	–
N=C(N)c1ccc2cc(OC(=O)c3ccc(N=C(N)N)cc3)ccc2c1 [Futhan, nafamostat mesilate]	–	–	not observed	lower	could live for long period
